Experimental data published in article PMC8059561, “Lowered sensitivity of bitter taste receptors to β-glucosides in bamboo lemurs: an instance of parallel and adaptive functional decline in TAS2R16?” (Proceedings of the Royal Society B: Biological Sciences, 2021).

Tests used:
TAS2R16 from H. griseus = test: Calcium assay, HEK293T cells expressing H. griseus TAS2R16 with Gα16/gust44; type: cell-based, Hapalemur griseus
TAS2R16 from H. aureus = test: Calcium assay, HEK293T cells expressing H. aureus TAS2R16 with Gα16/gust44; type: cell-based, Hapalemur aureus
TAS2R16 from P. simus = TAS2R16 from P. simus (Prolemur simus, UniProt A0A8C8ZSN9); test: Calcium assay, HEK293T cells expressing P. simus TAS2R16 with Gα16/gust44; type: cell-based
TAS2R16 from L. catta = TAS2R16 from L. catta (Lemur catta, UniProt A0A4Y1QJW7); test: Calcium assay, HEK293T cells expressing L. catta TAS2R16 with Gα16/gust44; type: cell-based; details: Calcium 4, mean ± s.e.m.
[1] = test system: TAS2R16 orthologue of Varecia variegata; design: method as in Itoigawa et al., [8]; details: ref Itoigawa et al., [8]; cited from earlier work
TAS2R16 P. simus L144S = target: T1, TAS2R16 P. simus L144S (Prolemur simus, UniProt A0A8C8ZSN9, L144S); test: Calcium assay, single-point mutant P. simus L144S TAS2R16; type: cell-based
T1 sequence (A0A8C8ZSN9 1-301 L144S): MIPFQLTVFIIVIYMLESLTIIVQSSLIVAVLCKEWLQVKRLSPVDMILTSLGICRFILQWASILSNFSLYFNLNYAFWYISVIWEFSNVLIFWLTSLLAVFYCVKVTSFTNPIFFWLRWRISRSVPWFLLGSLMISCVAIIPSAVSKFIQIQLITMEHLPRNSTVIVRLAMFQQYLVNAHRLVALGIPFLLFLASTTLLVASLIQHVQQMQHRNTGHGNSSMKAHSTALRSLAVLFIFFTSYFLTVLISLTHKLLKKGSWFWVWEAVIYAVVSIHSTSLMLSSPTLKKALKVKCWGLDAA

[2] = test system: anc-Bamboo lemur T140A /S144L TAS2R16; test: Calcium assay, double mutant anc-Bamboo lemur T140A/S144L (reply to referee); type: cell-based, last common ancestor (LCA) in bamboo lemurs; details: figure not shown
[3] = HEK293T, Gα16/gust44, Calcium 5, mean ± s.e.m.

Chain of TAS2R16 from P. simus (A0A8C8ZSN9 1-301): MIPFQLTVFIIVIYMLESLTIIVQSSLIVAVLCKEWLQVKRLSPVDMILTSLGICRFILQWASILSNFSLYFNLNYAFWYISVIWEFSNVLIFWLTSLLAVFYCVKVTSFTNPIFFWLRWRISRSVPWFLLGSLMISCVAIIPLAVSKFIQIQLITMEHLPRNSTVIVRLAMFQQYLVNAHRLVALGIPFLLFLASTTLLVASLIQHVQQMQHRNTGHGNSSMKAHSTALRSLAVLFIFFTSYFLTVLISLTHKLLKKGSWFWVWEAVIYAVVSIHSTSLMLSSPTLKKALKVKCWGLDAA
Chain of TAS2R16 from L. catta (A0A4Y1QJW7 1-301): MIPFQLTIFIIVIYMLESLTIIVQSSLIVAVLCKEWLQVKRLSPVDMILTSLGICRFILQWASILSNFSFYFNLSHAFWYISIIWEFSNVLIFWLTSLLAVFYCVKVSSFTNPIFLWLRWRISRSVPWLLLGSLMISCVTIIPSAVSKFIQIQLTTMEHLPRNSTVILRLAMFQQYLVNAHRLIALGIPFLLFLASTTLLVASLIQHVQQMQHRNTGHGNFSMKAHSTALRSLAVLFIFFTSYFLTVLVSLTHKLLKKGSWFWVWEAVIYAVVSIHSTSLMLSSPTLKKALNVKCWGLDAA

With `CC(C)(C#N)O[C@@H]1O[C@H](CO)[C@@H](O)[C@H](O)[C@H]1O` [linamarin] the “Amax (maximal signal amplitude, ΔF/F)” value (TAS2R16 from H. griseus; [3]) was 0.33 ± 0.031 and the “Amax (maximal signal amplitude, ΔF/F)” value (TAS2R16 from H. aureus; [3]) was 0.52 ± 0.041.
In the case of `OC[C@H]1O[C@@H](Oc2ccc(O)cc2)[C@H](O)[C@@H](O)[C@@H]1O` [arbutin], the “response of TAS2R16 to ligand” value (TAS2R16 from P. simus; at the concentrations used in the assays) is reported as “did not show any responses”, the EC50 (TAS2R16 from L. catta) is reported as 2.3 ± 0.21 mM and the “response of TAS2R16 to ligand” value (TAS2R16 from H. griseus) is reported as “did not show any responses”. The “response of TAS2R16 to ligand” value (TAS2R16 from H. aureus) was “did not show any responses”.
For `OCc1ccccc1O[C@@H]1O[C@H](CO)[C@@H](O)[C@H](O)[C@H]1O` [salicin], the EC50 (TAS2R16 from P. simus; HEK293T, Gα16/gust44, Calcium 4) is listed as over 40 mM, the EC50 [1] is listed as 3.8 mM and the EC50 (TAS2R16 P. simus L144S) is listed as 4.3 ± 0.85 mM. For the same compound, the EC50 (TAS2R16 from L. catta) was 2.1 ± 0.38 mM, the “responses of double mutant compared to single mutant (anc-Bamboo lemur S144L)” value [2] was “did not show significant reduction” and the EC50 (TAS2R16 from H. aureus; HEK293T, Gα16/gust44, Calcium 4, mean ± s.e.m.) was 6.8 ± 1.1 mM.
